# In PubChem BioAssay AID264 (DTP/NCI, 2004):
# Values joined by “and” are separate entries in the source; they are usually repeats but may differ in a detail not shown here. Equal entries are not always repeated. Records with an inconclusive call do not appear.
# System: nude mice, LX-1 lung xenograft intrarenal, tumor weight T/C
# Assay: NCI In Vivo Anticancer Drug Screen. Data for tumor model Human Lung LX-1 Xenograft (intrarenal inoculation) in NU/NU Swiss (nude) mice
# Details: endpoint: mean tumor weight change, higher = larger tumour
# In short: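 In vivo, transplantable tumor; compound vs vehicle arms; tumor size measured; value = T/C.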
# [1] = dose: 300.0 mg/kg/injection, schedule: Q04DX003 (sc), vehicle: suspension in saline
# [2] = dose: 600.0 mg/kg/injection, schedule: Q04DX003 (sc), vehicle: suspension in saline
# [3] = dose: 1200.0 mg/kg/injection, schedule: Q04DX003 (sc), vehicle: suspension in saline
# [4] = dose: 50.0 mg/kg/injection, schedule: Q04DX003 (sc), vehicle: Klucel (hydroxypropylcellulose) (HPC)
# [5] = dose: 300.0 mg/kg/injection, schedule: Q04DX003 (sc), vehicle: saline with Tween-80
# [6] = dose: 150.0 mg/kg/injection, schedule: Q04DX003 (sc), vehicle: saline with Tween-80
# [7] = dose: 100.0 mg/kg/injection, schedule: Q04DX003 (sc), vehicle: saline with Tween-80
# [8] = dose: 200.0 mg/kg/injection, schedule: Q04DX003 (sc), vehicle: saline with Tween-80
smiles,measurement,setting,value
O=C(O)CCCCCCCC(=O)O,T/C,"dose: 150.0 mg/kg/injection, schedule: Q04DX003 (sc), vehicle: distilled water + Tween-80",105 % of control
same,T/C,"dose: 300.0 mg/kg/injection, schedule: Q04DX003 (sc), vehicle: distilled water + Tween-80",79 % of control
same,T/C,"dose: 600.0 mg/kg/injection, schedule: Q04DX003 (sc), vehicle: distilled water + Tween-80",60 % of control
same,T/C,"dose: 1200.0 mg/kg/injection, schedule: Q04DX003 (sc), vehicle: distilled water + Tween-80",50 % of control
CCOC(=O)C1=C(C#N)C2(CCC(OCc3ccccc3)CC2)C(=O)O1 (centres undefined),T/C,[1],106 % of control
same,T/C,[2],111 % of control
same,T/C,[3],77 % of control
OCCOCC(F)(F)F,T/C,"dose: 300.0 mg/kg/injection, schedule: Q04DX003 (sc), vehicle: saline",78 % of control
same,T/C,"dose: 600.0 mg/kg/injection, schedule: Q04DX003 (sc), vehicle: saline",95 % of control
c1cc[c]([Sn]([NH]c2ncnc3[nH]cnc23)([NH]c2ncnc3[nH]cnc23)[c]2ccccc2)cc1,T/C,[1],85 % of control
same,T/C,[2],84 % of control
same,T/C,[3],82 % of control
same,T/C,"dose: 2400.0 mg/kg/injection, schedule: Q04DX003 (sc), vehicle: suspension in saline",64 % of control
O=C(O)c1ccc(C(=O)O)c(C(=O)O)c1.[NH-]C1CCCCC1[NH-].[Pt+2],T/C,"dose: 3.12 mg/kg/injection, schedule: Q01DX010 (sc), vehicle: sodium bicarbonate",101 % of control
same,T/C,"dose: 6.25 mg/kg/injection, schedule: Q01DX010 (sc), vehicle: sodium bicarbonate",74 % of control
C[C@H](N)C(=O)N[C@@H]1[C@H]2C(=C(O)C[C@@H](O)[C@@H]2O)C(=O)O[C@]1(C)C(Cl)Cl,T/C,"dose: 1.5 mg/kg/injection, schedule: Q04DX003 (sc), vehicle: Klucel (hydroxypropylcellulose) (HPC)",108 % of control
same,T/C,"dose: 3.0 mg/kg/injection, schedule: Q04DX003 (sc), vehicle: Klucel (hydroxypropylcellulose) (HPC)",107 % of control
same,T/C,"dose: 6.0 mg/kg/injection, schedule: Q04DX003 (sc), vehicle: Klucel (hydroxypropylcellulose) (HPC)",81 % of control
O=c1[nH]c(=O)n(C2CC(O)C(CO)O2)cc1Br (centres undefined),T/C,"dose: 200.0 mg/kg/injection, schedule: Q01DX010 (sc), vehicle: Klucel (hydroxypropylcellulose) (HPC)",35 % of control
same,T/C,"dose: 400.0 mg/kg/injection, schedule: Q01DX010 (sc), vehicle: Klucel (hydroxypropylcellulose) (HPC)",35 % of control
same,T/C,"dose: 800.0 mg/kg/injection, schedule: Q01DX010 (sc), vehicle: Klucel (hydroxypropylcellulose) (HPC)",27 % of control
O=C/C(Cl)=C(/Cl)C(=O)O,T/C,"dose: 5.0 mg/kg/injection, schedule: Q01DX010 (sc), vehicle: saline with Tween-80",124 % of control
same,T/C,"dose: 10.0 mg/kg/injection, schedule: Q01DX010 (sc), vehicle: saline with Tween-80",210 % of control
same,T/C,"dose: 20.0 mg/kg/injection, schedule: Q01DX010 (sc), vehicle: saline with Tween-80",72 % of control and 213 % of control
same,T/C,"dose: 40.0 mg/kg/injection, schedule: Q01DX010 (sc), vehicle: saline with Tween-80",48 % of control and 65 % of control
CN(C(=S)S(=O)(=O)C12CC3CC(CC(C3)C1)C2)c1ccccc1,T/C,[4],164 % of control
same,T/C,"dose: 100.0 mg/kg/injection, schedule: Q04DX003 (sc), vehicle: Klucel (hydroxypropylcellulose) (HPC)",161 % of control
same,T/C,"dose: 400.0 mg/kg/injection, schedule: Q04DX003 (sc), vehicle: Klucel (hydroxypropylcellulose) (HPC)",176 % of control
O=c1cc(-c2ccccc2)[nH]c2c1CCCC2,T/C,[5],114 % of control
same,T/C,"dose: 600.0 mg/kg/injection, schedule: Q04DX003 (sc), vehicle: saline with Tween-80",113 % of control
same,T/C,"dose: 1200.0 mg/kg/injection, schedule: Q04DX003 (sc), vehicle: saline with Tween-80",113 % of control
same,T/C,"dose: 2400.0 mg/kg/injection, schedule: Q04DX003 (sc), vehicle: saline with Tween-80",106 % of control
C[CH2][Sn]([CH2]C)([CH2]C(=O)OC)[CH2]C(=O)OC,T/C,"dose: 6.25 mg/kg/injection, schedule: Q04DX003 (sc), vehicle: saline with Tween-80",97 % of control
same,T/C,"dose: 12.5 mg/kg/injection, schedule: Q04DX003 (sc), vehicle: saline with Tween-80",92 % of control
same,T/C,"dose: 25.0 mg/kg/injection, schedule: Q04DX003 (sc), vehicle: saline with Tween-80",70 % of control
C[C@H](CCC[C@H](C)OS(=O)(=O)c1ccccc1)OS(=O)(=O)c1ccccc1,T/C,[6],87 % of control
same,T/C,[5],45 % of control
COc1cccc2c1C(=O)c1c(O)c3c(c(O)c1C2=O)C[C@@](O)(/C(C)=N\O)C[C@@H]3OC1CC(N)C(O)C(C)O1 (some centres undefined),T/C,"dose: 25.0 mg/kg/injection, schedule: Q04DX003 (sc), vehicle: saline",95 % of control
same,T/C,"dose: 50.0 mg/kg/injection, schedule: Q04DX003 (sc), vehicle: saline",76 % of control
COc1cc([C@@H]2c3cc4c(cc3[C@@H](OC3OC5CO[C@@H](c6cccs6)OC5C(O)C3O)[C@H]3COC(=O)[C@H]23)OCO4)cc(OC)c1O (some centres undefined),T/C,"dose: 1.0 mg/kg/injection, schedule: Q01DX010 (sc), vehicle: saline",54 % of control
same,T/C,"dose: 2.0 mg/kg/injection, schedule: Q01DX010 (sc), vehicle: saline",78 % of control
same,T/C,"dose: 4.0 mg/kg/injection, schedule: Q01DX010 (sc), vehicle: saline",62 % of control and 78 % of control
same,T/C,"dose: 8.0 mg/kg/injection, schedule: Q01DX010 (sc), vehicle: saline",62 % of control and 78 % of control
same,T/C,"dose: 16.0 mg/kg/injection, schedule: Q01DX010 (sc), vehicle: saline",89 % of control
same,T/C,"dose: 32.0 mg/kg/injection, schedule: Q01DX010 (sc), vehicle: saline",39 % of control
same,T/C,"dose: 33.0 mg/kg/injection, schedule: Q01DX010 (sc), vehicle: saline",109 % of control
same,T/C,"dose: 132.0 mg/kg/injection, schedule: Q01DX010 (sc), vehicle: saline",56 % of control
same,T/C,"dose: 264.0 mg/kg/injection, schedule: Q01DX010 (sc), vehicle: saline",88 % of control
CC(=O)OCC(=O)[C@@]12OC(C)(C)O[C@@H]1C[C@H]1[C@@H]3CC(C=O)=C4C=C(OCCCl)CC[C@]4(C)[C@@]3(F)[C@@H](O)C[C@@]12C,T/C,"dose: 25.0 mg/kg/injection, schedule: Q04DX003 (sc), vehicle: Klucel (hydroxypropylcellulose) (HPC)",79 % of control
same,T/C,[4],72 % of control
O=C(Nc1ccccc1C(=O)O)c1cc([N+](=O)[O-])cc([N+](=O)[O-])c1,T/C,"dose: 50.0 mg/kg/injection, schedule: Q04DX003 (sc), vehicle: saline with Tween-80",86 % of control
same,T/C,[7],86 % of control
same,T/C,[8],100 % of control
same,T/C,"dose: 400.0 mg/kg/injection, schedule: Q04DX003 (sc), vehicle: saline with Tween-80",64 % of control
C[N+](C)(C)c1cc2c(nn1)Nc1ccccc1S2,T/C,"dose: 100.0 mg/kg/injection, schedule: Q01DX010 (sc), vehicle: Klucel (hydroxypropylcellulose) (HPC)",89 % of control
c1ccc2sc(SSN3CC4CCC(CC4)C3)nc2c1,T/C,"dose: 50.0 mg/kg/injection, schedule: Q01DX010 (sc), vehicle: saline with Tween-80",81 % of control
same,T/C,"dose: 100.0 mg/kg/injection, schedule: Q01DX010 (sc), vehicle: saline with Tween-80",76 % of control
same,T/C,"dose: 200.0 mg/kg/injection, schedule: Q01DX010 (sc), vehicle: saline with Tween-80",48 % of control
same,T/C,"dose: 400.0 mg/kg/injection, schedule: Q01DX010 (sc), vehicle: saline with Tween-80",50 % of control
CCCCOCN(COCCCC)C(C)Cc1ccccc1 (centres undefined),T/C,[7],71 % of control
same,T/C,[8],85 % of control
same,T/C,"dose: 800.0 mg/kg/injection, schedule: Q04DX003 (sc), vehicle: saline with Tween-80",121 % of control
CN=C(N)N/N=C(\C)c1ccc2oc3ccc(/C(C)=N/NC(N)=NC)cc3c2c1,T/C,"dose: 75.0 mg/kg/injection, schedule: Q04DX003 (sc), vehicle: saline with Tween-80",89 % of control
same,T/C,[6],65 % of control
